Source: patent publication EP2718307B1, “BETA-HAIRPIN PEPTIDOMIMETICS AS CXC4 ANTAGONISTS” (Polyphor AG, priority 2011, dated 2012)
Bridge positions count the residues as written; N and C are the ends. Square brackets hold non-standard residues; d marks the D form. Peptide text beside a SMILES is read from it. Lys(iPr) = CC(C)NCCCC[C@H](N)C(=O)O; Orn(iPr) = CC(C)NCCC[C@H](N)C(=O)O

Columns and labels:
[1] = Drug loading calculations via maintenance dose rate (rate of infusion); conditions: CLiv-mouse values scaled by 0.127 (GFR human/GFR mouse)
Experimental: The drug load for an implant comprising a peptide of the invention was calculated following the basic principles in pharmacokinetics (see also J. Gabrielsson, D. Weiner, "Pharmacokinetics and Pharmaco-dynamics Data Analysis: Concepts and Applications", 4th edition, Swedish Pharmaceutical Press, Stockholm, Sweden, 2006) whereby the maintainance dose rate (rate of infusion, Rin) can be defined as the rate at which a drug is to be administered to reach a steady state of a certain dose in the plasma. The maintainance dose rate can be expressed using the correlation Rin [g/(h*kg)] = CLiv[L/(h*kg)] x Css,eff [g/L], wherein CLiv is the clearance (i.v. - admin.) and Css,eff the effective concentration of the drug in the plasma at steady state considering an efficacy margin A: Css,eff [g/L] = A x (IC50/fu) x MW [(mol/L)*(g/mol)]. Therefore, the total amount of a drug loaded into an implant providing for a constant effective concentration of that drug in the plasma for a certain period of time in a subject of a certain body weight can be calculated by applying the following correlation: Drugload [g/subject] = Rin [g/(h*kg)] x duration[h] x BW [kg/subject]. [formula]
Further pre-conditions are an efficacy margin of A = 3, a study duration of 672 h (28 days) and a body weight of a human suject of 70 kg. The glomerular filtration rate (GFR) which mainly influences the clearance of the peptides is highly dependent on the species. In general, the GFR of humans is averaged to be 107 mL/(h*kg) compared to the GFR of mouse being 840 mL/(h*kg). Therefore, the CLiv-mouse values indicated in Table 5b were allometrically scaled by 107 mL/(h*kg)/840 mL/(h*kg) = 0.127 before employed in the above described correlations.

[2] = test system: HSC mobilization; assay: HSC mobilization in mouse (time-response and dose-response study, CFU-C assay); assay type: in vivo, Male C57BI/6 mice; conditions: for time of maximum mobilization: from time-response study; for ED50: sigmoidal fit of doses 1.5, 5 and 15 mg/kg i.p., maximum constrained to 4000 CFU/mL, ED50 corresponds to 2000 CFU/mL
Experimental: For the compounds of Ex. 1 and Ex. 2 a HSC mobilization study was performed consisting of a time-response study to assess the time of maximum mobilization after dosing and a subsequent dose-response study.
Male C57BI/6 mice (Janvier, France; n = 5 for Ex. 1, n = 3 for Ex. 2) received bolus i.p. injections of Ex. 1 and Ex. 2, respectively, (5 mg/kg) dissolved in 10 µL of water per g mouse weight containing 0.9% NaCl. Blood was withdrawn from the cheek pouch into EDTA coated tubes for the time points 0, 0.5, 1, 2, 4, 6 and 8 hrs after administration. The colony forming unit in culture counts (CFU-C counts) were determined by performing a CFU-C assay as described below.
Male C57BI/6 mice (Janvier, France; n = 5 per dose group for Ex. 1, n = 3 per dose group for Ex. 2) received bolus i.p. injections of Ex. 1 and Ex. 2, respectively, at doses of 0.5, 1.5, 5 and 15 mg/kg (compound dissolved in 10 µL of water per g mouse weight containing 0.9% NaCl). Blood was collected as described above at the time of maximum mobilization for Ex. 1 (4 h) and Ex. 2 (2 h), respectively.
CFU-C counts were determined by culturing aliquots of lysed peripheral blood in standard semi-solid progenitor cell culture medium. In brief, a defined amount of blood was washed with PBS buffer (Gibco®) containing 0.5% bovine serum albumin, followed by red blood cell lysis in hypotonic NH4Cl buffer (Sigma) and a second wash step. The cell pellet was resuspended in DMEM (Gibco®) containing 10% FCS, suspended in 2 mL of commercially available, cytokine-replete methylcellulose medium for murine cells (Cell Systems, USA), and plated in duplicate into 35 mm cell culture dishes. CFU-C were scored after 7-8 days incubation under standard conditions (20% O2, saturated humidity, 5% CO2, 37 °C). Peripheral blood cellularity was analyzed using an automated blood count machine (Drew Scientific).
Considering the curve progressions of both compounds the dose-responses are constrained to a maximum response of 4000 CFU/mL. The ED50-values indicated in Table 9 are therefore corresponding to a response of 2000 CFU/mL.

[3] = time-response study, 5 mg/kg bolus i.p., 0.5 h after administration
[4] = time-response study, 5 mg/kg bolus i.p., 1 h after administration
[5] = time-response study, 5 mg/kg bolus i.p., 2 h after administration
[6] = time-response study, 5 mg/kg bolus i.p., 4 h after administration
[7] = time-response study, 5 mg/kg bolus i.p., 6 h after administration
[8] = time-response study, 5 mg/kg bolus i.p., 8 h after administration

SMILES | CLiv, human (allometric scaled) [1] | CFU/mL ± SD ([2]; dose-response study, 0.5 mg/kg bolus i.p., blood collected at 4 h) | CFU/mL ± SD ([2]; dose-response study, 1.5 mg/kg bolus i.p., blood collected at 4 h) | CFU/mL ± SD ([2]; dose-response study, 5 mg/kg bolus i.p., blood collected at 4 h) | CFU/mL ± SD ([2]; dose-response study, 15 mg/kg bolus i.p., blood collected at 4 h) | time of maximum mobilization ([2]; 5 mg/kg bolus i.p.) | ED50 [2] | CFU/mL ± SD [2, 3] | CFU/mL ± SD [2, 4] | CFU/mL ± SD [2, 5] | CFU/mL ± SD [2, 6] | CFU/mL ± SD [2, 7] | CFU/mL ± SD [2, 8] | CFU/mL ± SD ([2]; dose-response study, 1.5 mg/kg bolus i.p., blood collected at 2 h) | CFU/mL ± SD ([2]; dose-response study, 5 mg/kg bolus i.p., blood collected at 2 h) | CFU/mL ± SD ([2]; dose-response study, 15 mg/kg bolus i.p., blood collected at 2 h)
COc1ccc(C[C@@H]2NC(=O)[C@H](Cc3c[nH]cn3)NC(=O)[C@H](Cc3ccc(O)cc3)NC(=O)[C@@H]3CCCN3C(=O)[C@H]3CCCN3C(=O)[C@H](CCCCNC(C)C)NC(=O)[C@H](CCC(N)=O)NC(=O)[C@H](Cc3ccc(O)cc3)NC(=O)[C@@H]3CSSC[C@H](NC2=O)C(=O)N[C@@H](CO)C(=O)N[C@@H](C)C(=O)N[C@H](Cc2ccc(OC)cc2)C(=O)N[C@@H](CCCNC(C)C)C(=O)N[C@@H](CCCNC(=N)N)C(=O)N[C@@H](Cc2ccc(O)cc2)C(=O)N3)cc1 [Ex. 6, cyclo(-Tyr^1-His^2-Tyr(Me)^3-Cys^4-Ser^5-Ala^6-^DTyr(Me)^7-Orn(iPr)^8-Arg^9-Tyr^10-Cys^11-Tyr^12-Gln^13-Lys(iPr)^14-^DPro^15-Pro^16-), disulfide bond between Cys^4 and Cys^11] (cyclo(YHY(Me)CSA[dY](Me)[Orn(iPr)]RYCYQ[Lys(iPr)][dP]P); disulfide 4-11) | 0.311 L/h/kg |  |  |  |  |  |  |  |  |  |  |  |  |  |  | 
CC(C)NCCCC[C@@H]1NC(=O)[C@H](CCC(N)=O)NC(=O)[C@H](Cc2ccc(O)cc2)NC(=O)[C@@H]2CSSC[C@H](NC(=O)[C@H](Cc3ccc(O)cc3)NC(=O)[C@H](Cc3c[nH]cn3)NC(=O)[C@H](Cc3ccc(O)cc3)NC(=O)[C@@H]3CCCN3C(=O)[C@H]3CCCN3C1=O)C(=O)N[C@@H](CO)C(=O)N[C@@H](C)C(=O)N1CCC[C@@H]1C(=O)N[C@@H](CCCNC(C)C)C(=O)N[C@@H](CCCNC(=N)N)C(=O)N[C@@H](Cc1ccc(O)cc1)C(=O)N2 [Ex. 1, cyclo(-Tyr^1-His^2-Tyr^3-Cys^4-Ser^5-Ala^6-^DPro^7-Orn(iPr)^8-Arg^9-Tyr^10-Cys^11-Tyr^12-Gln^13-Lys(iPr)^14-^DPro^15-Pro^16-), disulfide bond between Cys^4 and Cys^11] (cyclo(YHYCSA[dP][Orn(iPr)]RYCYQ[Lys(iPr)][dP]P); disulfide 4-11) | 0.11 L/h/kg | 974 ± 57 CFU/mL | 1672 ± 233 CFU/mL | 3325 ± 310 CFU/mL | 3289 ± 431 CFU/mL | 4 h | 1.76 mg/kg | 511 ± 85 CFU/mL | 2208 ± 262 CFU/mL | 2592 ± 450 CFU/mL | 3109 ± 537 CFU/mL | 1857 ± 281 CFU/mL | 588 ± 161 CFU/mL |  |  | 
COc1ccc(C[C@@H]2NC(=O)[C@H](Cc3c[nH]cn3)NC(=O)[C@H](Cc3ccc(O)cc3)NC(=O)[C@@H]3CCCN3C(=O)[C@H]3CCCN3C(=O)[C@H](CCCCNC(C)C)NC(=O)[C@H](CCC(N)=O)NC(=O)[C@H](Cc3ccc(O)cc3)NC(=O)[C@@H]3CSSC[C@H](NC2=O)C(=O)N[C@@H](CO)C(=O)N[C@@H](C)C(=O)N2CCC[C@@H]2C(=O)N[C@@H](CCCNC(C)C)C(=O)N[C@@H](CCCNC(=N)N)C(=O)N[C@@H](Cc2ccc(O)cc2)C(=O)N3)cc1 [Ex. 2, cyclo(-Tyr^1-His^2-Tyr(Me)^3-Cys^4-Ser^5-Ala^6-^DPro^7-Orn(iPr)^8-Arg^9-Tyr^10-Cys^11-Tyr^12-Gln^13-Lys(iPr)^14-^DPro^15-Pro^16-), disulfide bond between Cys^4 and Cys^11] (cyclo(YHY(Me)CSA[dP][Orn(iPr)]RYCYQ[Lys(iPr)][dP]P); disulfide 4-11) | 0.084 L/h/kg |  |  |  |  | 2 h | 2.38 mg/kg | 839 ± 148 CFU/mL | 1020 ± 262 CFU/mL | 2894 ± 329 CFU/mL | 1929 ± 643 CFU/mL | 1164 ± 151 CFU/mL | 373 ± 96 CFU/mL | 1314 ± 463 CFU/mL | 2894 ± 329 CFU/mL | 3589 ± 576 CFU/mL
COc1ccc(C[C@H]2NC(=O)[C@H](C)NC(=O)[C@H](CO)NC(=O)[C@@H]3CSSC[C@H](NC(=O)[C@H](Cc4ccc(O)cc4)NC(=O)[C@H](CCCNC(=N)N)NC(=O)[C@H](CCCNC(C)C)NC2=O)C(=O)N[C@@H](Cc2ccc(O)cc2)C(=O)N[C@@H](CCC(N)=O)C(=O)N[C@@H](CCCCNC(C)C)C(=O)N2CCC[C@@H]2C(=O)N2CCC[C@H]2C(=O)N[C@@H](Cc2ccc(O)cc2)C(=O)N[C@@H](Cc2c[nH]cn2)C(=O)N[C@@H](C)C(=O)N3)cc1 [Ex. 4, cyclo(-Tyr^1-His^2-Ala^3-Cys^4-Ser^5-Ala^6-^DTyr(Me)^7-Orn(iPr)^8-Arg^9-Tyr^10-Cys^11-Tyr^12-Gln^13-Lys(iPr)^14-^DPro^15-Pro^16-), disulfide bond between Cys^4 and Cys^11] (cyclo(YHACSA[dY](Me)[Orn(iPr)]RYCYQ[Lys(iPr)][dP]P); disulfide 4-11) | 0.094 L/h/kg |  |  |  |  |  |  |  |  |  |  |  |  |  |  | 
